Results reported in patent US20220233468A1 (priority 2021, published 2022).
Where two headings read alike, the source gives them in different places.

Experiments:
Assay in all cases: microbe, parasite or virus in culture
Type in all cases: cell-based
[1] = test system: pseudovirions harboring S protein from SARS-CoV-2 Gamma variant (P.1); settings: Severe acute respiratory syndrome coronavirus 2
[2] = test system: pseudovirions harboring S protein from SARS-CoV-2 Beta variant (B.1.351); settings: for EC50: Severe acute respiratory syndrome coronavirus 2
[3] = test system: pseudovirions harboring S protein from SARS-CoV-2 Alpha variant (B.1.1.7); settings: for EC50: Severe acute respiratory syndrome coronavirus 2
[4] = test system: pseudovirions harboring S protein from SARS-CoV-2 Delta variant (B.1.617.2); settings: for EC50: Severe acute respiratory syndrome coronavirus 2
[5] = read-out: EC50, inhibition of cellular entry of pseudovirions, Gamma variant

| SMILES | EC50 [1, 5] [µM] | inhibition of cellular entry of pseudovirions with Spike variants (in words), Beta variant [2] | inhibition of cellular entry of pseudovirions with Spike variants (in words), Alpha variant [3] | inhibition of cellular entry of pseudovirions with Spike variants (in words), Delta variant [4] | EC50 ([1]; read-out: EC50, prophylactic inhibition of cellular entry of pseudovirions, Gamma variant) [µM] | EC50 ([2]; read-out: EC50, inhibition of cellular entry of pseudovirions, Beta variant) [µM] | EC50 ([2]; read-out: EC50, prophylactic inhibition of cellular entry of pseudovirions, Beta variant) [µM] | EC50 ([3]; read-out: EC50, inhibition of cellular entry of pseudovirions, Alpha variant) [µM] | EC50 ([3]; read-out: EC50, prophylactic inhibition of cellular entry of pseudovirions, Alpha variant) [µM] | EC50 ([4]; read-out: EC50, inhibition of cellular entry of pseudovirions, Delta variant) [µM] | EC50 ([4]; read-out: EC50, prophylactic inhibition of cellular entry of pseudovirions, Delta variant) [µM] |
| --- | --- | --- | --- | --- | --- | --- | --- | --- | --- | --- | --- |
| COc1ccc(/C=C/C(=O)C(F)(CC2CCC2)C(=O)/C=C/c2ccc(OC)c(OC)c2)cc1OC [Compound A, 4-fluoro-4-cyclobutylmethyl-1,7-bis(3,4-dimethoxyphenyl)hepta-1,6-diene-3,5-dione] | ~4 | showed inhibition of cellular entry | showed inhibition of cellular entry | showed inhibition of cellular entry | – | – | – | – | – | – | – |
| COc1ccc(/C=C/C(=O)C(CC2CCC2)C(=O)/C=C/c2ccc(OC)c(OC)c2)cc1OC [Compound B, 4-(cyclobutylmethyl)-1,7-bis(3,4-dimethoxyphenyl)hepta-1,6-diene-3,5-dione] | ~4.7 | – | – | – | ~3.6 | ~4.7 | ~3.3 | ~4.4 | ~3.2 | ~4.9 | ~3.8 |
